# Marks after values point to notes of the source that are not given here.
# What was measured:
# [1] = tested on: normal human fibroblasts; assay: Hyaluronic acid production by normal human fibroblasts treated with supernatant of treated keratinocytes (HA-ELISA); type: cell-based; conditions: supernatant on fibroblasts 48 hrs
# Experimental: Normal human dermal fibroblasts were cultured to confluence. Cells were treated for 48 hours with supernatants of normal human keratinocytes previously grown in the presence of the test products. The fibroblast supernatants, containing hyaluronic acid, were collected and assayed immediately. Hyaluronic acid was quantified with an ELISA microtiter plate. Protein content was determined for each well of the microtiter plate.
# (§1) Primocultures of normal human keratinocytes (NHK) were obtained from cells isolated from skin specimens from plastic surgery.
# (§2) NHK were seeded at a density of 130,000 cells/well in specific KSFM culture medium (Gibco®, Invitrogen) in a 24-well plate. The plate was placed in a humid incubator (37° C., 5% CO2) for 24 hours.
# Primocultures of normal human fibroblasts (NHF) were obtained from cells isolated from skin specimens from plastic surgery.
# NHF were seeded at a density of 90,000 cells/well in E-199 culture medium supplemented with 0.5% FCS (Gibco® Invitrogen) in a 24-well plate. The plate was placed in a humid incubator (37° C., 5% CO2) for 24 hours.
# The two cell types—NHK and NHF—were plated 48 hours apart.
# The different products at the respective concentrations (diluted in KSFM medium, 600 μl) were contacted with NHK cells for 48 hours. Untreated cells were used as the control condition. Two plates were used to separately test NAG, and NAG+vitamin A propionate, on the one hand, and NAG6P, and NAG6P+vitamin A propionate, on the other hand.
# (§3) Each treatment condition was evaluated on three wells of NHK cells.
# After 48 hours, a fraction of NHK cell supernatant (300 μl/well) was removed and transferred well for well into NHF cell supernatants (300 μl E-199/well−fresh medium without FCS).
# This gave a final volume of 600 μl/well (50:50 ratio of KSFM/E-199 medium) which remained on the NHF cells for 48 hours.
# After 48 hours of treatment, the NHF cell supernatant was collected and centrifuged.
# Hyaluronic acid was assayed in the cell supernatants as described in example 1.
# (§4) The assay was performed in duplicate for each well.
# (§5) Optical densities (OD) measured on each sample were plotted on a graph (specific standard curve in the kit). The hyaluronic acid concentration was expressed in ng/ml.
# (§6) The amount of hyaluronic acid released by the cells was determined for each well and for each treatment condition, relative to the cell content expressed as μg of protein. Thus, the final result was expressed as ng/ml of hyaluronic acid per μg of protein.
# (§7) A mean value was calculated for wells treated with the same concentration of test product. This mean was compared with the mean of the control wells (Student t test−comparison of means−significant difference at 95% if p<0.05* and at 99% if p<0.01**).
# (§8) The percent stimulation induced by the test products was determined by comparing the mean values of the control and treatment conditions: % Stimulation=(Treated−Control)/Control
# [2] = tested on: normal human fibroblasts; assay: Procollagen 1 production by normal human fibroblasts treated with supernatant of treated keratinocytes (EIA); type: cell-based; conditions: supernatant on fibroblasts 48 hrs
# Experimental: This experiment was carried out according to the method described in example 3. Fibroblast supernatants, containing procollagen 1, were collected and assayed immediately for procollagen 1 by means of an EIA microtiter plate.
# After 48 hours of treatment, NHF cell supernatants were collected and centrifuged.
# Procollagen 1 was assayed in the cell supernatants by the method described in the Procollagen Type 1 C-peptide EIA kit (MK101, Takara). This is an EIA assay with spectrophotometric detection at 450 nm (Safire, Tecan).
# Duplicate determinations were carried out for two wells whereas the third well was assayed only once.
# Optical densities (OD) measured on each sample were plotted on a graph (specific standard curve in the kit). The procollagen 1 concentration was expressed in ng/ml.
# As in example 3, the protein content was determined in the cell pellets of the supernatants for which procollagen 1 was assayed.
# as §7, with “Thus, the final result was expressed as ng/ml of procollagen 1 per μg of protein. A” for “A”, “means, significant” for “means−significant”
# The percent stimulation produced by the test products was determined by comparing the mean values of the control and treatment conditions: % Stimulation=(Treated−Control)/Control
# [3] = tested on: normal human keratinocytes; assay: Hyaluronic acid production by normal human keratinocytes (HA-ELISA of supernatant); type: cell-based; conditions: 1 μM
# Experimental: Normal human keratinocytes were cultured to confluence. Cells were treated with the test products for 48 hours. The supernatants, containing hyaluronic acid, were collected and assayed immediately. Hyaluronic acid was quantified with an ELISA microtiter plate.
# as §1, §2
# The different products at the respective concentrations (diluted in KSFM medium, 600 μl) were contacted with the cells for 48 hours. Untreated cells were used as the control condition.
# as §3
# After 24 hours of treatment, an intermediate sample of […] of supernatant was removed from each well and the plate returned to the incubator (37° C., 5% CO2).
# After 48 hours of treatment, the remaining supernatant (≈350 μA) was collected and centrifuged.
# Cell supernatants were assayed according to the method described in the Hyaluronan Enzyme-Linked Immunosorbent Assay kit (HA-ELISA, Echelon Biosciences Inc.). This is an ELISA assay with spectrophotometric detection at 405 nm (Safire, Tecan).
# as §4, §5, §6
# A mean value was calculated for wells treated with the same concentration of test product. This mean was compared with the mean of the control wells (Student t test−comparison of means−significant difference at 95% if p<0.05* and at 99% if p<0.01*).
# as §8
# The vitamin A propionate was dissolved in DMSO.
# [4] = tested on: normal human fibroblasts; assay: Proliferation of normal human fibroblasts treated with supernatant of treated keratinocytes (Cell Proliferation ELISA, BrdU); type: cell-based; conditions: 1 μM on keratinocytes 48 hrs, supernatant on fibroblasts 48 hrs
# Experimental: This experiment evaluated the proliferation of normal human fibroblasts (dermal primocultures) after 48 hours of treatment with supernatant transferred from human keratinocytes.
# The “Cell Proliferation ELISA, BrdU” test quantifies cell proliferation by measuring incorporation of bromodeoxyuridine (BrdU) during DNA synthesis followed by luminescence detection.
# Cells were placed in the presence of the treatment for a specified time (incubator at 37° C., 5% CO2). The pyrimidine analogue 5-bromo-2′-deoxyuridine (BrdU) was then added and the cells were further incubated (37° C., 5% CO2) for a minimum of 2 hours, during which time BrdU is incorporated in place of thymidine into the DNA of proliferating cells.
# The culture medium was removed, then the cells were fixed and the DNA denatured at the same time (antibody accessibility). An anti-BrdU-POD (peroxidase) antibody was added; this antibody binds to BrdU in newly synthesized DNA. The immune complex was then detected by addition of luminol substrate with measurement of luminescence (Genios, Tecan).
# NHF were seeded at a density of 5,000 cells/well in E-199 culture medium (Gibco® Invitrogen) in a 96-well Optilux white plate (BD Falcon 353947). The plate was placed in a humid incubator (37° C., 5% CO2) for 24 hours.
# The different products at the respective concentrations (diluted in KSFM culture medium, 600 μl) were contacted with NHK cells for 48 hours. Control cells were left untreated. Each treatment conditions was evaluated on three wells of NHK cells.
# After 48 hours, a fraction of the NHK cell supernatant was removed. Each sample of supernatant (2 times 100 μl) from a well on the NHK plate (24 wells) was transferred to two wells in the NHF plate already containing 100 μl of E-199 medium per well. […]
# Cell proliferation was quantified by the method described in the “Cell Proliferation ELISA, BrdU” kit (Roche Applied Science No. 11669915001). This is an immunological assay with luminescence detection (Genios, Tecan).
# The means of the luminescence values (RLU/s) of six wells with the same treatment condition were determined. […] Proliferation of treated cells was expressed as a percentage of the control(untreated cells−100%)(OD treated/OD control×100).
# [5] = tested on: patients with osteoarthritis; conditions: three-year trial, 212 patients with osteoarthritis, versus slight worsening in placebo group; cited from earlier work
# [6] = 5 mM on keratinocytes 48 hrs, vs Control
# [7] = 10 mM on keratinocytes 48 hrs, vs Control
# [8] = 1 μM on keratinocytes 48 hrs, NAG6P plate (Table 6)
# [9] = 1 μM on keratinocytes 48 hrs, NAG plate (Table 5)
# [10] = 1 μM on keratinocytes 48 hrs, NAG6P plate (Table 8)
# [11] = 1 μM on keratinocytes 48 hrs, NAG plate (Table 7)
smiles,measurement,setting,value
"CC(=O)N[C@H]1C(O)O[C@H](CO)[C@@H](O)[C@@H]1O (stereo partly shown) [NAG, N-acetylglucosamine]",Hyaluronic acid,[1]; 5 mM on keratinocytes 48 hrs,4277.6 ± 488 ng/mL
same,Hyaluronic acid (ng/ml/μg prot.),[1]; 5 mM on keratinocytes 48 hrs,358.9 ± 81.8 ng/ml/μg prot.
same,% stimulation of hyaluronic acid synthesis,[1]; [6],−17%
same,Hyaluronic acid,[1]; 10 mM on keratinocytes 48 hrs,4056.1 ± 315.5 ng/mL
same,Hyaluronic acid (ng/ml/μg prot.),[1]; 10 mM on keratinocytes 48 hrs,258.8 ± 8.1 ng/ml/μg prot.
same,% stimulation of hyaluronic acid synthesis,[1]; [7],−40%**
same,Procollagen 1,[2]; 5 mM on keratinocytes 48 hrs,685.9 ± 38.6 ng/mL
same,Procollagen 1 (ng/ml/μg prot.),[2]; 5 mM on keratinocytes 48 hrs,57.3 ± 10.5 ng/ml/μg prot.
same,% stimulation (procollagen 1),[2]; [6],−37%*
same,Procollagen 1,[2]; 10 mM on keratinocytes 48 hrs,700.9 ± 32.7 ng/mL
same,Procollagen 1 (ng/ml/μg prot.),[2]; 10 mM on keratinocytes 48 hrs,44.9 ± 1.3 ng/ml/μg prot.
same,% stimulation (procollagen 1),[2]; [7],−51%**
"CCC(=O)OC/C=C(C)/C=C/C=C(C)/C=C/C1=C(C)CCCC1(C)C [Vit. A propionate, vitamin A propionate]",Hyaluronic acid,[1]; [8],3358.8 ± 615.3 ng/mL
same,Hyaluronic acid (ng/ml/μg prot.),[1]; [8],389.2 ± 108.3 ng/ml/μg prot.
same,% stimulation of hyaluronic acid synthesis,"[1]; 1 μM on keratinocytes 48 hrs, NAG6P plate (Table 6), vs DMSO control",7%
same,Hyaluronic acid,[1]; [9],3645.6 ± 667.8 ng/mL
same,Hyaluronic acid (ng/ml/μg prot.),[1]; [9],316.6 ± 68 ng/ml/μg prot.
same,% stimulation of hyaluronic acid synthesis,"[1]; 1 μM on keratinocytes 48 hrs, NAG plate (Table 5), vs DMSO control",−18%
same,% stimulation of hyaluronic acid synthesis,[3]; 24 hrs,34%*
same,Hyaluronic acid,[3]; 24 hrs,1056 ± 186.5 ng/mL
same,% stimulation of hyaluronic acid synthesis,"[3]; 24 hrs, listed as vitamin A propionate",34%
same,Hyaluronic acid,[3]; 48 hrs,1944.8 ± 393.2 ng/mL
same,Hyaluronic acid (ng/ml/μg prot.),[3]; 48 hrs,137.1 ± 32.2 ng/ml/μg prot.
same,% stimulation of hyaluronic acid synthesis,"[3]; 48 hrs, vs DMSO control",105%*
same,% stimulation of hyaluronic acid synthesis,"[3]; 48 hrs, vs DMSO control, listed as vitamin A propionate",105%
same,RLU,[4],4640 ± 267 RLU
same,% Proliferation,[4]; DMSO control = 100%,109%**
same,Procollagen 1,[2]; [10],704.4 ± 38.6 ng/mL
same,Procollagen 1 (ng/ml/μg prot.),[2]; [10],81.9 ± 13.0 ng/ml/μg prot.
same,% stimulation (procollagen 1),"[2]; 1 μM on keratinocytes 48 hrs, NAG6P plate (Table 8), vs DMSO control",5%
same,Procollagen 1,[2]; [11],706.1 ± 73.8 ng/mL
same,Procollagen 1 (ng/ml/μg prot.),[2]; [11],64.3 ± 20.1 ng/ml/μg prot.
same,% stimulation (procollagen 1),"[2]; 1 μM on keratinocytes 48 hrs, NAG plate (Table 7), vs DMSO control",15%
"N[C@H]1C(O)O[C@H](CO)[C@@H](O)[C@@H]1O (stereo partly drawn) [glucosamine, D-glucosamine]",improvement in symptoms,[5],20-25%

# From patent US9907760B2 (LIBRAGEN, priority 2010, dated 2018)
